# Values quoted from earlier work, collected in paper PMC8513935.
# Legend:
# [1] = log P octanol/water from commercial databases, averaged (the ESI); details: Octanol (wet), 25 C
# [2] = derived by the authors as gas->solvent minus gas->water (a hypothetical dry solvent; the ESI), not a two-phase measurement
# [3] = experimental, compiled by the authors from the literature (the ESI cites the sources)
compound,measurement,setting,value
CCC(C)=O,"log K of transfer, water to solvent",[1],0.29 log10 K
same,"log K of transfer, water to solvent","[2]; 1,2-Dichloroethane, 25 C",0.92 log10 K
same,"log K of transfer, water to solvent","[2]; 2-Methylpropan-1-ol, 25 C",0.27 log10 K
same,"log K of transfer, water to solvent","[2]; 2-Methylpropan-2-ol, 25 C",0.39 log10 K
same,"log K of transfer, water to solvent","[2]; 3-Methylbutan-1-ol, 25 C",0.29 log10 K
same,"log K of transfer, water to solvent","[2]; Acetone, 25 C",0.7 log10 K
same,"log K of transfer, water to solvent","[2]; Acetonitrile, 25 C",0.76 log10 K
same,"log K of transfer, water to solvent","[2]; Benzene, 25 C",0.55 log10 K
same,"log K of transfer, water to solvent","[2]; Butan-1-ol, 25 C",0.3 log10 K
same,"log K of transfer, water to solvent","[2]; Butan-2-ol, 25 C",0.33 log10 K
same,"log K of transfer, water to solvent","[2]; Butanone, 25 C",0.64 log10 K
same,"log K of transfer, water to solvent","[2]; Butyronitrile, 25 C",0.66 log10 K
same,"log K of transfer, water to solvent","[2]; CCl4, 25 C",0.27 log10 K
same,"log K of transfer, water to solvent","[2]; Chlorobenzene, 25 C",0.57 log10 K
same,"log K of transfer, water to solvent","[2]; Chloroform, 25 C",1.15 log10 K
same,"log K of transfer, water to solvent","[2]; Cyclohexane, 25 C",-0.246 log10 K
same,"log K of transfer, water to solvent","[2]; Cyclohexanone, 25 C",0.574 log10 K
same,"log K of transfer, water to solvent","[2]; Di-n-butyl ether, 25 C",0.00999 log10 K
same,"log K of transfer, water to solvent","[2]; Dichloromethane, 25 C",1.14 log10 K
same,"log K of transfer, water to solvent","[2]; Diethyl Ether, 25 C",0.31 log10 K
same,"log K of transfer, water to solvent","[2]; Ethanol, 25 C",0.44 log10 K
same,"log K of transfer, water to solvent","[2]; Hexadecane, 25 C",-0.433 log10 K
same,"log K of transfer, water to solvent","[2]; Hexan-1-ol, 25 C",0.122 log10 K
same,"log K of transfer, water to solvent","[2]; Hexane, 25 C",-0.23 log10 K
same,"log K of transfer, water to solvent","[2]; Methanol, 25 C",0.62 log10 K
same,"log K of transfer, water to solvent","[2]; Octan-1-ol(dry), 25 C",0.05 log10 K
same,"log K of transfer, water to solvent","[2]; Pentan-1-ol, 25 C",0.13 log10 K
same,"log K of transfer, water to solvent","[2]; Perfluoroalkane, 25 C",-0.957 log10 K
same,"log K of transfer, water to solvent","[2]; Propan-1-ol, 25 C",0.35 log10 K
same,"log K of transfer, water to solvent","[2]; Propan-2-ol, 25 C",0.27 log10 K
same,"log K of transfer, water to solvent","[2]; Tetrahydrofuran, 25 C",0.61 log10 K
same,"log K of transfer, water to solvent","[2]; Toluene, 25 C",0.41 log10 K
same,"log K of transfer, gas to solvent","[3]; 1,2-Dichloroethane, 25 C",3.64 log10 K
same,"log K of transfer, gas to solvent","[3]; 2-Methylpropan-1-ol, 25 C",2.99 log10 K
same,"log K of transfer, gas to solvent","[3]; 2-Methylpropan-2-ol, 25 C",3.11 log10 K
same,"log K of transfer, gas to solvent","[3]; 3-Methylbutan-1-ol, 25 C",3.01 log10 K
same,"log K of transfer, gas to solvent","[3]; Acetonitrile, 25 C",3.48 log10 K
same,"log K of transfer, gas to solvent","[3]; Benzene, 25 C",3.27 log10 K
same,"log K of transfer, gas to solvent","[3]; Butan-1-ol, 25 C",3.02 log10 K
same,"log K of transfer, gas to solvent","[3]; Butan-2-ol, 25 C",3.05 log10 K
same,"log K of transfer, gas to solvent","[3]; Butanone, 25 C",3.36 log10 K
same,"log K of transfer, gas to solvent","[3]; Butyronitrile, 25 C",3.38 log10 K
same,"log K of transfer, gas to solvent","[3]; CCl4, 25 C",2.99 log10 K
same,"log K of transfer, gas to solvent","[3]; Chlorobenzene, 25 C",3.29 log10 K
same,"log K of transfer, gas to solvent","[3]; Chloroform, 25 C",3.87 log10 K
same,"log K of transfer, gas to solvent","[3]; Cyclohexane, 25 C",2.47 log10 K
same,"log K of transfer, gas to solvent","[3]; Cyclohexanone, 25 C",3.29 log10 K
same,"log K of transfer, gas to solvent","[3]; Di-n-butyl ether, 25 C",2.73 log10 K
same,"log K of transfer, gas to solvent","[3]; Dichloromethane, 25 C",3.86 log10 K
same,"log K of transfer, gas to solvent","[3]; Diethyl Ether, 25 C",3.03 log10 K
same,"log K of transfer, gas to solvent","[3]; Ethanol, 25 C",3.16 log10 K
same,"log K of transfer, gas to solvent","[3]; Hexadecane, 25 C",2.29 log10 K
same,"log K of transfer, gas to solvent","[3]; Hexan-1-ol, 25 C",2.84 log10 K
same,"log K of transfer, gas to solvent","[3]; Hexane, 25 C",2.49 log10 K
same,"log K of transfer, gas to solvent","[3]; Methanol, 25 C",3.34 log10 K
same,"log K of transfer, gas to solvent","[3]; Octan-1-ol, 25 C",2.77 log10 K
same,"log K of transfer, gas to solvent","[3]; Pentan-1-ol, 25 C",2.85 log10 K
same,"log K of transfer, gas to solvent","[3]; Perfluoroalkane, 25 C",1.76 log10 K
same,"log K of transfer, gas to solvent","[3]; Propan-1-ol, 25 C",3.07 log10 K
same,"log K of transfer, gas to solvent","[3]; Propan-2-ol, 25 C",2.99 log10 K
same,"log K of transfer, gas to solvent","[3]; Propanone, 25 C",3.42 log10 K
same,"log K of transfer, gas to solvent","[3]; Tetrahydrofuran, 25 C",3.33 log10 K
same,"log K of transfer, gas to solvent","[3]; Toluene, 25 C",3.13 log10 K
same,"log K of transfer, gas to solvent","[3]; Water, 25 C",2.72 log10 K
CCCCCCCO,"log K of transfer, water to solvent",[1],2.62 log10 K
same,"log K of transfer, water to solvent","[2]; 1,2-Dichloroethane, 25 C",1.89 log10 K
same,"log K of transfer, water to solvent","[2]; Benzene, 25 C",1.93 log10 K
same,"log K of transfer, water to solvent","[2]; Butyronitrile, 25 C",2.24 log10 K
same,"log K of transfer, water to solvent","[2]; CCl4, 25 C",1.57 log10 K
same,"log K of transfer, water to solvent","[2]; Chlorobenzene, 25 C",1.86 log10 K
same,"log K of transfer, water to solvent","[2]; Chloroform, 25 C",2.41 log10 K
same,"log K of transfer, water to solvent","[2]; Cyclohexane, 25 C",1.09 log10 K
same,"log K of transfer, water to solvent","[2]; Heptan-1-ol, 25 C",2.71 log10 K
same,"log K of transfer, water to solvent","[2]; Hexadecane, 25 C",1.02 log10 K
same,"log K of transfer, water to solvent","[2]; Hexan-1-ol, 25 C",2.83 log10 K
same,"log K of transfer, water to solvent","[2]; Hexane, 25 C",1.01 log10 K
same,"log K of transfer, water to solvent","[2]; Methanol, 25 C",2.48 log10 K
same,"log K of transfer, water to solvent","[2]; Toluene, 25 C",1.86 log10 K
same,"log K of transfer, gas to solvent","[3]; 1,2-Dichloroethane, 25 C",4.98 log10 K
same,"log K of transfer, gas to solvent","[3]; Benzene, 25 C",5.02 log10 K
same,"log K of transfer, gas to solvent","[3]; Butyronitrile, 25 C",5.33 log10 K
same,"log K of transfer, gas to solvent","[3]; CCl4, 25 C",4.66 log10 K
same,"log K of transfer, gas to solvent","[3]; Chlorobenzene, 25 C",4.95 log10 K
same,"log K of transfer, gas to solvent","[3]; Chloroform, 25 C",5.5 log10 K
same,"log K of transfer, gas to solvent","[3]; Cyclohexane, 25 C",4.18 log10 K
same,"log K of transfer, gas to solvent","[3]; Heptan-1-ol, 25 C",5.8 log10 K
same,"log K of transfer, gas to solvent","[3]; Hexadecane, 25 C",4.11 log10 K
same,"log K of transfer, gas to solvent","[3]; Hexan-1-ol, 25 C",5.92 log10 K
same,"log K of transfer, gas to solvent","[3]; Hexane, 25 C",4.1 log10 K
same,"log K of transfer, gas to solvent","[3]; Methanol, 25 C",5.57 log10 K
same,"log K of transfer, gas to solvent","[3]; Toluene, 25 C",4.95 log10 K
same,"log K of transfer, gas to solvent","[3]; Water, 25 C",3.09 log10 K
C=CCCCCC,"log K of transfer, water to solvent",[1],3.99 log10 K
same,"log K of transfer, water to solvent","[2]; Butyronitrile, 25 C",4.09 log10 K
same,"log K of transfer, water to solvent","[2]; Hexadecane, 25 C",4.28 log10 K
same,"log K of transfer, water to solvent","[2]; Pentan-1-ol, 25 C",4.1 log10 K
same,"log K of transfer, water to solvent","[2]; Propionitrile, 25 C",4 log10 K
same,"log K of transfer, gas to solvent","[3]; Butyronitrile, 25 C",2.87 log10 K
same,"log K of transfer, gas to solvent","[3]; Hexadecane, 25 C",3.06 log10 K
same,"log K of transfer, gas to solvent","[3]; Pentan-1-ol, 25 C",2.88 log10 K
same,"log K of transfer, gas to solvent","[3]; Propionitrile, 25 C",2.78 log10 K
same,"log K of transfer, gas to solvent","[3]; Water, 25 C",-1.22 log10 K
CCc1ccc(O)cc1,"log K of transfer, water to solvent",[1],2.58 log10 K
same,"log K of transfer, water to solvent","[2]; 1,2-Dichloroethane, 25 C",1.67 log10 K
same,"log K of transfer, water to solvent","[2]; CCl4, 25 C",0.86 log10 K
same,"log K of transfer, water to solvent","[2]; Chlorobenzene, 25 C",1.3 log10 K
same,"log K of transfer, water to solvent","[2]; Chloroform, 25 C",1.47 log10 K
same,"log K of transfer, water to solvent","[2]; Dichloromethane, 25 C",1.66 log10 K
same,"log K of transfer, water to solvent","[2]; Hexadecane, 25 C",0.237 log10 K
same,"log K of transfer, water to solvent","[2]; Hexane, 25 C",0.29 log10 K
same,"log K of transfer, water to solvent","[2]; Perfluoroalkane, 25 C",-1.33 log10 K
same,"log K of transfer, gas to solvent","[3]; 1,2-Dichloroethane, 25 C",6.17 log10 K
same,"log K of transfer, gas to solvent","[3]; CCl4, 25 C",5.36 log10 K
same,"log K of transfer, gas to solvent","[3]; Chlorobenzene, 25 C",5.8 log10 K
same,"log K of transfer, gas to solvent","[3]; Chloroform, 25 C",5.97 log10 K
same,"log K of transfer, gas to solvent","[3]; Dichloromethane, 25 C",6.16 log10 K
same,"log K of transfer, gas to solvent","[3]; Hexadecane, 25 C",4.73 log10 K
same,"log K of transfer, gas to solvent","[3]; Hexane, 25 C",4.79 log10 K
same,"log K of transfer, gas to solvent","[3]; Perfluoroalkane, 25 C",3.17 log10 K
same,"log K of transfer, gas to solvent","[3]; Water, 25 C",4.5 log10 K
